Assay [1] concerns the target PDK1 (Homo sapiens (Human), UniProt O15530). Kind of assay: PDK1 kinase assay (coupled PDK1/AKT/FAM-crosstide assay, IMAP fluorescence polarization). The class given is biochemical. The gist of the method:
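PDK1 activity is measured indirectly through activation of a PIFtide-fused AKT2 construct that phosphorylates FAM-crosstide (100 nM). The reaction uses 0.75 nM PDK1, 40 μM ATP, 30 min, 25° C, with IMAP polarization detection.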
(In general: In fluorescence polarisation assays a small probe gives low polarisation when free and higher when bound to something large.)

The subject of assay [2] is phospho-akt (Thr308) in PC-3 cells. Kind of assay: Inhibition of phospho-akt (Thr308) in PC-3 cells, MSD phospho-akt 308 ELISA kit. The class given is cell-based. Conditions: Homo sapiens, 2 hours, no serum, read-out: EC50. The gist of the method:
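Serum-free 2 h compound exposure of overnight-seeded PC-3 cells, threefold dilution series; lysates analysed on blocked MSD plates (3% BSA) for Thr308-phosphorylated Akt, normalised between DMSO and 5 μM wortmannin wells.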
In general terms: ELISA stands for enzyme-linked immunosorbent assay.

Setting [3] is: inhibition of P308 Akt in PC-3 cells using MSD.
Where [4] appears, read: PC-3, 2 h, inhibition of P308 Akt in PC-3 cells using MSD.
[5] abbreviates: inhibition of phospo-PDK1 in vitro.
[6] abbreviates: inhibition of P308 Akt in PC-3 cells, MSD.

For orientation: IC50 means the midpoint of a concentration-inhibition curve. Read a low IC50 as greater potency in that assay. A word on the EC50: it is the concentration at which the effect is half-maximal.

Counter-ions that a name gives are not always drawn. Like-named read-outs stand apart in the source and are kept apart here.

PDK1, sequence (O15530 51-359): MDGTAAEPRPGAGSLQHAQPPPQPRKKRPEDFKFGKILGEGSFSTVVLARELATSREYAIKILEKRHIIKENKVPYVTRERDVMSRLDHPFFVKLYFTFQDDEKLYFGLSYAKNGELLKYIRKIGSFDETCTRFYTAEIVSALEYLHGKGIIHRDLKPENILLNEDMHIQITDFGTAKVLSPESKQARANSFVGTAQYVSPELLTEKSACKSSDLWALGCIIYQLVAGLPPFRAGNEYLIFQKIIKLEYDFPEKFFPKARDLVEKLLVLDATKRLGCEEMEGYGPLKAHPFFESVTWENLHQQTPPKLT

`Nc1ncc(-c2ccc(CNc3ncc(C(F)(F)F)cc3C(=O)Nc3ccc(F)cc3)cc2)nc1N1CCC[C@H](N)C1` [Example 196] registered an IC50 in assay [1] (inhibition of PDK1 in vitro) of under 0.1 µM. Also, the EC50 in assay [2] (setting [3]) was under 1 µM.
In assay [1] (inhibition of PDK1 in vitro), `C[C@H](NC(=O)c1nc(C#N)cnc1NCc1ccc(-c2cnc(N)c(CCC3CCNC3)n2)cc1)c1ccc(F)c(F)c1` (single isomer, unassigned) [Example 79] came in with an IC50 of under 0.1 µM. The concentration giving a half-maximal response (EC50) in assay [2] (setting [4]) was under 1 µM.
In assay [1] (setting [5]), `CN(C)C(=O)c1cnc(NCc2ccc(-c3ccc4ncnc(N)c4c3)s2)c(C(=O)NCc2ccc(F)c(F)c2)c1` [Example 7.24.4, 2-({[5-(4-aminoquinazolin-6-yl)thiophen-2-yl]methyl}amino)-N^3-(3,4-difluorobenzyl)-N^5,N^5-dimethylpyridine-3,5-dicarboxamide] came in with an IC50 of under 0.1 µM. In addition, the EC50 in assay [2] (setting [6]) was under 1 µM.
Compound `Nc1ncnc2ccc(-c3ccc(CNc4ncccc4C(=O)NCc4ccc(F)cc4)s3)cc12` [Example 3.7, 2-({[5-(4-aminoquinazolin-6-yl)thiophen-2-yl]methyl}amino)-N-(4-fluorobenzyl)pyridine-3-carboxamide (TFA salt)] came in with an IC50 in assay [1] (setting [5]) of under 0.1 µM. The EC50 in assay [2] (setting [6]) was under 1 µM.
For `O=C(NCc1ccc(F)c(F)c1)c1cccnc1NCc1cc(-c2c[nH]c3ncccc23)ccn1` [Example 18.1, 2-((4-(1H-pyrrolo[2,3-b]pyridin-3-yl)pyridin-2-ylmethyl)amino)-N-(3,4-difluorobenzyl)nicotinamide], in that order: under 0.1 µM and 1 to 10 µM.
For `Nc1ncnc2ccc(-c3ccc(CNc4ncc(F)cc4C(=O)NCc4ccc(F)c(F)c4)s3)cc12` [Ex. 7.3.1], the IC50 in assay [1] (setting [5]) was under 0.1 µM. The EC50 in assay [2] (setting [6]) was under 1 µM.
As for `O=C(NCc1ccc(F)c(F)c1)c1cc(C(F)(F)F)cnc1NCc1ccc(-c2cnc(NCCCO)cn2)cc1` [Example 231, N-(3,4-Difluoro-benzyl)-2-{4-[5-(3-hydroxy-propylamino)-pyrazin-2-yl]-benzylamino}-5-trifluoromethyl-nicotinamide], in assay [1] (inhibition of PDK1 in vitro), the IC50 lay within 0.1 to 1 µM. Further, in assay [2] (setting [4]), the half-maximal effective concentration (EC50) is 1 to 10 µM.
Regarding `N#Cc1cnc(N[C@@H](COc2ccc3[nH]c(=O)[nH]c3c2)c2ccccc2)c(C(=O)NCc2ccc(F)cc2)n1` [Example 16.12, (R)-6-cyano-N-(4-fluorobenzyl)-3-(2-(2-oxo-2,3-dihydro-1H-benzo[d]imidazol-5-yloxy)-1-phenylethylamino) pyrazine-2-carboxamide], the IC50 in assay [1] (setting [5]) was under 0.1 µM. In assay [2] (setting [6]), the EC50 is under 1 µM.
Taken in the same sequence, the figures for `CC(C)Oc1cc(CNc2ncccc2C(=O)Nc2ccc(C(F)(F)F)cc2)cc(-c2c[nH]c3ncc(C(=O)NC4CC4)cc23)c1` [Example 4.1.2] were over 5 µM and over 10 µM.
For the compound `C[C@H](NC(=O)c1cc(C#N)cnc1NCc1ccc(-c2cnc3[nH]nc(CCCN(C)C)c3c2)cc1)c1ccc(F)cc1` [Example 149, (S)-5-cyano-2-(4-(3-(3-(dimethylamino)propyl)-1H-pyrazolo[3,4-b]pyridin-5-yl)benzyl-amino)-N-(1-(4-fluorophenyl)ethyl) nicotinamide], the 50% inhibitory concentration (IC50) in assay [1] (inhibition of PDK1 in vitro) is under 0.1 µM. Also, the EC50 in assay [2] (setting [3]) was under 1 µM.
`Nc1ncnc2ccc(-c3ccc(CNc4ncccc4C(=O)Nc4ccc(F)cc4)s3)cc12` [Example 3.47, 2-({[5-(4-aminoquinazolin-6-yl)thiophen-2-yl]methyl}amino)-N-(4-fluorophenyl)pyridine-3-carboxamide (TFA salt)]: the concentration for half-maximal inhibition (IC50) in assay [1] (setting [5]) was 0.1 to 1 µM. Also, in assay [2] (setting [6]), the EC50 is under 1 µM.
For `O=C1Nc2cc(/C=C/CNc3ncccc3C(=O)NCc3ccc(F)c(F)c3)ccc2/C1=C/c1cnc[nH]1` [Example 15.1, 2-((E)-3-((Z)-3-((1H-imidazol-5-yl)methylene)-2-oxoindolin-6-yl)allylamino)-N-(3,4-difluorobenzyl)nicotinamide], in that order: under 0.1 µM and under 1 µM.
For `C[C@H](NC(=O)c1nc(C#N)cnc1NCc1ccc(-c2cnc3[nH]nc(N)c3c2)nc1)c1ccc(F)c(F)c1` [Example 58, (S)-3-(((6-(3-amino-1H-pyrazolo[3,4-b]pyridin-5-yl)pyridin-3-yl)methyl)amino)-6-cyano-N-(1-(3,4-difluorophenyl)ethyl) pyrazine-2-carboxamide], in assay [1] (inhibition of PDK1 in vitro), the IC50 was under 0.1 µM. Moreover, the concentration for a half-maximal effect (EC50) in assay [2] (setting [3]) was under 1 µM.
`O=C(NCc1ccc(F)c(F)c1)c1cccnc1NCc1cc(-c2c[nH]c3ncccc23)cs1` [Ex. 6.15, N-(3,4-difluorobenzyl)-2-({[4-(1H-pyrrolo[2,3-b]pyridin-3-yl)thiophen-2-yl]-methyl}amino) pyridine-3-carboxamide] registered a concentration for half-maximal inhibition (IC50) in assay [1] (setting [5]) of 0.1 to 1 µM. Moreover, in assay [2] (setting [6]), the EC50 is over 10 µM.
`Nc1n[nH]c2ncc(-c3ccc(CNc4ncc(C(F)(F)F)cc4C(=O)NC4COC4)cc3)cc12` [Example 298, 2-(4-(3-amino-1H-pyrazolo [3,4-b]pyridin-5-yl)benzylamino)-N-(oxetan-3-yl)-5-(trifluoromethyl) nicotinamide] had an IC50 in assay [1] (inhibition of PDK1 in vitro) of 1 to 5 µM. Moreover, in assay [2] (setting [3]), the EC50 is over 10 µM.
Taken in the same sequence, the figures for `C[C@H](NC(=O)c1cc(C#N)cnc1NCc1ccc(-c2ccc(N)nc2)cc1)c1ccc(F)cc1` [Example 106, (S)-2-(4-(6-aminopyridin-3-yl)benzylamino)-5-cyano-N-(1-(4-fluorophenyl)ethyl) nicotinamide] were under 0.1 µM and under 1 µM.
For `C[C@H](NC(=O)c1cccnc1NCc1ccc(-c2ccc3ncnc(NC4CC4)c3c2)s1)c1ccc(F)c(F)c1` [Example 386, 2-{[5-(4-Cyclopropylamino-quinazolin-6-yl)-thiophen-2-ylmethyl]-amino}-N-[(S)-1-(3,4-difluoro-phenyl)-ethyl]-nicotinamide], in that order: under 0.1 µM and 1 to 10 µM.
For `C[C@H](NC(=O)c1cc(C#N)cnc1NCc1ccc(-c2ccnc(C#N)c2)cc1)c1ccc(F)cc1` [Example 108, (S)-5-cyano-2-(4-(2-cyanopyridin-4-yl)benzylamino)-N-(1-(4-fluorophenyl)ethyl)nicotinamide], in that order: over 5 µM and over 10 µM.
For the compound `C[C@H](NC(=O)c1cc(C#N)cnc1NCc1ccc(-c2cnc(N)c(CCC(C)(C)N)n2)cc1)c1ccc(F)cc1` [Example 82, 2-{4-[5-Amino-6-(3-amino-3-methyl-butyl)-pyrazin-2-yl]-benzylamino}-5-cyano-N-[(S)-1-(4-fluoro-phenyl)-ethyl]-nicotinamide], the 50% inhibitory concentration (IC50) in assay [1] (inhibition of PDK1 in vitro) is under 0.1 µM. The half-maximal effective concentration (EC50) in assay [2] (setting [3]) is under 1 µM.
For `CNC(=O)c1cc(S(=O)(=O)NCCN)cnc1NCc1ccc(-c2ccc3ncnc(N)c3c2)s1` [Example 344], in that order: over 5 µM and over 10 µM.
For `C[C@H](NC(=O)c1cc(C#N)cnc1NCc1ccc(-c2cnc(N)cn2)c(F)c1)c1ccc(F)cc1` [Example 131, (S)-2-(4-(5-aminopyrazin-2-yl)-3-fluorobenzylamino)-5-cyano-N-(1-(4-fluorophenyl)ethyl) nicotinamide], in that order: under 0.1 µM and 1 to 10 µM.
As for `C[C@H](NC(=O)c1cccnc1NCc1ccc(-c2ccc3ncnn3c2)s1)c1ccc(F)cc1` [Example 2.4, N-[(1S)-1-(4-fluorophenyl)ethyl]-2-({[5-([1,2,4]triazolo[1,5-a]pyridin-6-yl)thiophen-2-yl]methyl}amino)pyridine-3-carboxamide], in assay [1] (setting [5]), the IC50 is 1 to 5 µM. The half-maximal effective concentration (EC50) in assay [2] (setting [6]) was over 10 µM.
